# Key:
# Assay in all cases: relative viability (nuclei count vs DMSO), 5 days (fraction); higher = more cells survive
# A549 = system: A549
# Summary of the method: (§1)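 Values are medians from duplicate plates. Each reflects relative viability, defined as the nuclei count of treated wells over that of vehicle wells. Lung cancer cell lines in 1536-well plates were pin-tool dosed one day after seeding with one drug alone or with a fixed anchor-drug dose plus five library-drug doses (not always all listed) in √10 steps, then fixed, stained and imaged at 4× after 5 days.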
# COR-L 105 = system: COR-L 105
# Summary of the method: as §1
# Calu-6 = system: Calu-6
# Summary of the method: as §1
# EBC-1 = system: EBC-1
# Summary of the method: as §1
# IA-LM = system: IA-LM
# Summary of the method: as §1
# LCLC-103H = system: LCLC-103H
# Summary of the method: as §1
# LK-2 = system: LK-2
# Summary of the method: as §1
# NCI-H1299 = system: NCI-H1299
# Summary of the method: as §1
# NCI-H1355 = system: NCI-H1355
# Summary of the method: as §1
# NCI-H1623 = system: NCI-H1623
# Summary of the method: as §1
# NCI-H1666 = system: NCI-H1666
# Summary of the method: as §1
# NCI-H1703 = system: NCI-H1703
# Summary of the method: as §1
# NCI-H520 = system: NCI-H520
# Summary of the method: as §1
smiles,measurement,setting,value
COc1cc2nccc(Oc3ccc(NC(=O)Nc4cc(C)on4)c(Cl)c3)c2cc1OC [Tivozanib] + COc1cc2c(Oc3ccc(NC(=O)C4(C(=O)Nc5ccc(F)cc5)CC4)cc3F)ccnc2cc1OCCCN1CCOCC1 [Foretinib] (partner 0.25 µM),relative viability,A549; first compound 0.005 µM,0.804
same,relative viability,A549; first compound 0.01581 µM,0.987
same,relative viability,A549; first compound 0.05 µM,1.01
same,relative viability,A549; first compound 0.1581 µM,0.976
same,relative viability,A549; first compound 0.5 µM,1.04
same,relative viability,COR-L 105; first compound 0.005 µM,1.06
same,relative viability,COR-L 105; first compound 0.01581 µM,1.06
same,relative viability,COR-L 105; first compound 0.05 µM,1.13
same,relative viability,COR-L 105; first compound 0.1581 µM,1.23
same,relative viability,COR-L 105; first compound 0.5 µM,1.11
same,relative viability,Calu-6; first compound 0.005 µM,0.896
same,relative viability,Calu-6; first compound 0.01581 µM,0.845
same,relative viability,Calu-6; first compound 0.05 µM,0.929
same,relative viability,Calu-6; first compound 0.1581 µM,0.824
same,relative viability,Calu-6; first compound 0.5 µM,0.876
same,relative viability,EBC-1; first compound 0.005 µM,0.103
same,relative viability,EBC-1; first compound 0.01581 µM,0.104
same,relative viability,EBC-1; first compound 0.05 µM,0.11
same,relative viability,EBC-1; first compound 0.1581 µM,0.0953
same,relative viability,EBC-1; first compound 0.5 µM,0.0941
same,relative viability,IA-LM; first compound 0.005 µM,1.21
same,relative viability,IA-LM; first compound 0.01581 µM,1.15
same,relative viability,IA-LM; first compound 0.05 µM,1.24
same,relative viability,IA-LM; first compound 0.1581 µM,1.32
same,relative viability,IA-LM; first compound 0.5 µM,0.94
same,relative viability,LCLC-103H; first compound 0.005 µM,0.905
same,relative viability,LCLC-103H; first compound 0.01581 µM,0.809
same,relative viability,LCLC-103H; first compound 0.05 µM,0.686
same,relative viability,LCLC-103H; first compound 0.1581 µM,0.849
same,relative viability,LCLC-103H; first compound 0.5 µM,0.881
same,relative viability,LK-2; first compound 0.005 µM,1.36
same,relative viability,LK-2; first compound 0.01581 µM,1.09
same,relative viability,LK-2; first compound 0.05 µM,1.18
same,relative viability,LK-2; first compound 0.1581 µM,1.1
same,relative viability,LK-2; first compound 0.5 µM,1.02
same,relative viability,NCI-H1299; first compound 0.005 µM,1.05
same,relative viability,NCI-H1299; first compound 0.01581 µM,1.09
same,relative viability,NCI-H1299; first compound 0.05 µM,1.11
same,relative viability,NCI-H1299; first compound 0.1581 µM,1.18
same,relative viability,NCI-H1299; first compound 0.5 µM,1.04
same,relative viability,NCI-H1355; first compound 0.005 µM,0.937
same,relative viability,NCI-H1355; first compound 0.01581 µM,0.978
same,relative viability,NCI-H1355; first compound 0.05 µM,0.975
same,relative viability,NCI-H1355; first compound 0.1581 µM,0.929
same,relative viability,NCI-H1355; first compound 0.5 µM,0.966
same,relative viability,NCI-H1623; first compound 0.005 µM,0.821
same,relative viability,NCI-H1623; first compound 0.01581 µM,0.989
same,relative viability,NCI-H1623; first compound 0.05 µM,0.938
same,relative viability,NCI-H1623; first compound 0.1581 µM,0.888
same,relative viability,NCI-H1623; first compound 0.5 µM,0.914
same,relative viability,NCI-H1666; first compound 0.005 µM,0.973
same,relative viability,NCI-H1666; first compound 0.01581 µM,0.971
same,relative viability,NCI-H1666; first compound 0.05 µM,1.04
same,relative viability,NCI-H1666; first compound 0.1581 µM,0.963
same,relative viability,NCI-H1666; first compound 0.5 µM,0.999
same,relative viability,NCI-H1703; first compound 0.005 µM,0.335
same,relative viability,NCI-H1703; first compound 0.01581 µM,0.385
same,relative viability,NCI-H1703; first compound 0.05 µM,0.384
same,relative viability,NCI-H1703; first compound 0.1581 µM,0.33
same,relative viability,NCI-H1703; first compound 0.5 µM,0.405
same,relative viability,NCI-H520; first compound 0.005 µM,0.595
same,relative viability,NCI-H520; first compound 0.01581 µM,0.702
same,relative viability,NCI-H520; first compound 0.05 µM,0.74
same,relative viability,NCI-H520; first compound 0.1581 µM,0.644
same,relative viability,NCI-H520; first compound 0.5 µM,0.712
Cc1sc2c(c1C)C(c1ccc(Cl)cc1)=N[C@@H](CC(=O)OC(C)(C)C)c1nnc(C)n1-2 [JQ1] + COc1cc2c(Oc3ccc(NC(=O)C4(C(=O)Nc5ccc(F)cc5)CC4)cc3F)ccnc2cc1OCCCN1CCOCC1 [Foretinib] (partner 0.25 µM),relative viability,A549; first compound 0.04 µM,0.881
same,relative viability,A549; first compound 0.1265 µM,0.76
same,relative viability,A549; first compound 0.4 µM,0.878
same,relative viability,A549; first compound 1.265 µM,0.32
same,relative viability,A549; first compound 4 µM,0.194
same,relative viability,COR-L 105; first compound 0.04 µM,0.794
same,relative viability,COR-L 105; first compound 0.1265 µM,0.604
same,relative viability,COR-L 105; first compound 0.4 µM,0.656
same,relative viability,COR-L 105; first compound 1.265 µM,0.219
same,relative viability,COR-L 105; first compound 4 µM,0.272
same,relative viability,Calu-6; first compound 0.04 µM,0.848
same,relative viability,Calu-6; first compound 0.1265 µM,0.79
same,relative viability,Calu-6; first compound 0.4 µM,0.756
same,relative viability,Calu-6; first compound 1.265 µM,0.478
same,relative viability,Calu-6; first compound 4 µM,0.406
same,relative viability,EBC-1; first compound 0.04 µM,0.098
same,relative viability,EBC-1; first compound 0.1265 µM,0.0891
same,relative viability,EBC-1; first compound 0.4 µM,0.0572
same,relative viability,EBC-1; first compound 1.265 µM,0.0617
same,relative viability,EBC-1; first compound 4 µM,0.0624
same,relative viability,IA-LM; first compound 0.04 µM,0.943
same,relative viability,IA-LM; first compound 0.1265 µM,0.645
same,relative viability,IA-LM; first compound 0.4 µM,0.224
same,relative viability,IA-LM; first compound 1.265 µM,0.0743
same,relative viability,IA-LM; first compound 4 µM,0.0831
same,relative viability,LCLC-103H; first compound 0.04 µM,0.765
same,relative viability,LCLC-103H; first compound 0.1265 µM,0.6
same,relative viability,LCLC-103H; first compound 0.4 µM,0.562
same,relative viability,LCLC-103H; first compound 1.265 µM,0.481
same,relative viability,LCLC-103H; first compound 4 µM,0.301
same,relative viability,LK-2; first compound 0.04 µM,1.21
same,relative viability,LK-2; first compound 0.1265 µM,1.04
same,relative viability,LK-2; first compound 0.4 µM,0.325
same,relative viability,LK-2; first compound 1.265 µM,0.226
same,relative viability,LK-2; first compound 4 µM,0.221
same,relative viability,NCI-H1299; first compound 0.04 µM,1.03
same,relative viability,NCI-H1299; first compound 0.1265 µM,0.947
same,relative viability,NCI-H1299; first compound 0.4 µM,0.819
same,relative viability,NCI-H1299; first compound 1.265 µM,0.558
same,relative viability,NCI-H1299; first compound 4 µM,0.34
same,relative viability,NCI-H1355; first compound 0.04 µM,0.925
same,relative viability,NCI-H1355; first compound 0.1265 µM,0.936
same,relative viability,NCI-H1355; first compound 0.4 µM,0.735
same,relative viability,NCI-H1355; first compound 1.265 µM,0.677
same,relative viability,NCI-H1355; first compound 4 µM,0.562
same,relative viability,NCI-H1623; first compound 0.04 µM,0.878
same,relative viability,NCI-H1623; first compound 0.1265 µM,0.809
same,relative viability,NCI-H1623; first compound 0.4 µM,0.716
same,relative viability,NCI-H1623; first compound 1.265 µM,0.496
same,relative viability,NCI-H1623; first compound 4 µM,0.441
same,relative viability,NCI-H1666; first compound 0.04 µM,0.855
same,relative viability,NCI-H1666; first compound 0.1265 µM,0.924
same,relative viability,NCI-H1666; first compound 0.4 µM,0.818
same,relative viability,NCI-H1666; first compound 1.265 µM,0.634
same,relative viability,NCI-H1666; first compound 4 µM,0.653
same,relative viability,NCI-H1703; first compound 0.04 µM,0.298
same,relative viability,NCI-H1703; first compound 0.1265 µM,0.284
same,relative viability,NCI-H1703; first compound 0.4 µM,0.313
same,relative viability,NCI-H1703; first compound 1.265 µM,0.318
same,relative viability,NCI-H1703; first compound 4 µM,0.332
same,relative viability,NCI-H520; first compound 0.04 µM,0.732
same,relative viability,NCI-H520; first compound 0.1265 µM,0.793
same,relative viability,NCI-H520; first compound 0.4 µM,0.81
same,relative viability,NCI-H520; first compound 1.265 µM,0.35
same,relative viability,NCI-H520; first compound 4 µM,0.277

# From the supplement of paper PMC10307832
